# In patent US20220249441A1, “Homodimeric Tobramycin Adjuvant Repurposes Novobiocin as an Effective Antibacterial Agent Against Gram-Negative Bacteria” (priority 2019, published 2022):
# How the values were obtained:
# MRSA ATCC 33592 = assay: MIC and combination against Gram-positive bacteria; type: cell-based; details: MRSA ATCC 33592
# Protocol: (§1) Next, we investigated whether tobramycin by itself would potentiate novobiocin against Gram-negative bacteria.
# (§2) Antimicrobial Susceptibility Assay. The in vitro antimicrobial activity of all compounds/antibiotics against a panel of bacteria was evaluated by microbroth dilution method in accordance with the Clinical and Laboratory Standards Institute (CLSI) guidelines (using ATCC strains as quality control strains) (54). Overnight grown bacterial cultures were diluted in saline to achieve a 0.5 McFarland turbidity, followed by 1:50 dilution in Mueller-Hinton broth (MHB) for inoculation to a final concentration of approximately 5×10^5 CFU/mL. […] The lowest concentration that prevented the visible growth of bacteria was defined as the MIC for each antimicrobial agent. The broth with or without bacterial cells was used as positive or negative control, respectively.
# E. faecium ATCC 27270 = assay: MIC and combination against Gram-positive bacteria; type: cell-based
# Protocol: as §1, §2
# MRSE 61589 = assay: MIC and combination against Gram-positive bacteria; type: cell-based
# Protocol: as §1, §2
# E. cloacae = assay: Checkerboard assay (antibiotic + adjuvant combination MIC); type: cell-based, Enterobacter cloacae; details: for MIC of Novobiocin +Compound 1: 1 at ≤7.1 μM; for Fold Potentiation: novobiocin + 1 at ≤7.1 μM
# Protocol: as §2
# (§3) Checkerboard Assay. Combination studies with different antibiotics were performed in 96-well plates as previously described (19). Briefly, the antibiotic of interest was serially diluted in MHB along the abscissa while the adjuvant (tobramycin homodimer) was serially diluted in MHB along the ordinate. This creates a 10×7 matrices wherein each well consists of a combination of different antibiotic and adjuvant concentrations. Overnight grown bacterial cultures were diluted in saline to achieve a 0.5 McFarland turbidity, followed by 1:50 dilution in Mueller-Hinton broth (MHB) for inoculation to a final concentration of approximately 5×10^5 CFU/mL. […] MIC was recorded as wells with the lowest concentration of drugs with no bacterial growth. The fractional inhibitory concentration (FIC) for each antibiotic was calculated by dividing the MIC of the antibiotic in the presence of adjuvant by the MIC of the antibiotic alone. Similarly, the FIC of adjuvant was calculated by dividing the MIC of the adjuvant in the presence of antibiotic by the MIC of the adjuvant alone. FIC index is the sum of both FICs. FIC indices of ≤0.5 were deemed synergistic; >0.5-4, no interaction; and >4, antagonistic.
# P. aeruginosa = assay: as above; type: cell-based, Pseudomonas aeruginosa; details: for MIC of Novobiocin +Compound 1: 1 at ≤7.1 μM; for MIC of Novobiocin + adjuvant (7.1 μM): PMBN or 1 at 7.1 μM
# A. baumannii ATCC 17978 = assay: microbe, parasite or virus in culture; type: cell-based, Acinetobacter baumannii; details: seven serial passages
# Protocol: Development of Resistance Study. […] Tobramycin and colistin were included as controls. At 24-hour intervals, the cultures were assessed for growth. […] This serial passaging was repeated for 8 days.
# MDR A. baumannii = assay: Galleria mellonella in vivo larvae-infection model; details: single dose 100 mg/kg, agent alone; after 24 h
# Protocol: Galleria mellonella In vivo Larvae-Infection Model. In vivo synergistic effects were determined using Galleria mellonella infection model, as previously described (49). Briefly, larvae were purchased from The Worm Lady Live Feeder (ON, Canada), stored in their natural habitat at 16° C., and used within 10 days of delivery. The larvae (average weight of 250 mg) were used for tolerability and efficacy studies. Tolerability study was performed by injecting a 10 μL aliquot of antimicrobial agents only at concentrations equivalent to 100 mg/kg or 200 mg/kg. The larvae (ten in each group) were incubated at 37° C. and monitored for 96 h. For efficacy studies, the virulence and bacterial load required to kill 100% of the larvae within 24 h (with no treatment) was first determined, which is approximately 10 CFU. Overnight grown culture of respective MDR A. baumannii isolate was standardized to 0.5 McFarland standard and diluted in PBS to a final concentration of 10^3 CFU/mL. A 10 μL aliquot of this solution (˜10 CFU) was injected into each larva and incubated for 3 h at 37° C. […] Larvae treated with 10 μL of PBS or high concentrations of test antibiotics served as negative and positive control, respectively. The larvae were incubated at 37° C. in Petri dishes lined with filter paper and scored for survivability every 6 h for up to 36 h. […]
# A. baumannii = assay: Checkerboard assay (antibiotic + adjuvant combination MIC); type: cell-based, Acinetobacter baumannii; details: for MIC of Novobiocin +Compound 1: 1 at ≤7.1 μM; for Fold Potentiation: novobiocin + 1 at ≤7.1 μM
# Protocol: as §2, §3
# K. pneumoniae = assay: as above; type: cell-based, Klebsiella pneumoniae; details: for MIC of Novobiocin +Compound 1: 1 at ≤7.1 μM; for Fold Potentiation: novobiocin + 1 at ≤7.1 μM
# Protocol: as §2, §3
# E. coli = assay: as above; type: cell-based, Escherichia coli; details: for MIC of Novobiocin +Compound 1: 1 at ≤7.1 μM; for MIC of Novobiocin + adjuvant (7.1 μM): PMBN or 1 at 7.1 μM; for Fold Potentiation: novobiocin + 1 at ≤7.1 μM
# Protocol: as §2, §3
structure (smiles),measurement,setting,value
"NC[C@H]1O[C@H](O[C@H]2[C@H](OCCCCc3cn(CCCCO[C@@H]4[C@@H](O[C@H]5O[C@H](CO)[C@@H](O)[C@H](N)[C@H]5O)[C@H](N)C[C@H](N)[C@H]4O[C@H]4O[C@H](CN)[C@@H](O)C[C@H]4N)nn3)[C@@H](O[C@H]3O[C@H](CO)[C@@H](O)[C@H](N)[C@H]3O)[C@H](N)C[C@@H]2N)[C@H](N)C[C@@H]1O.O=C(O)C(F)(F)F.O=C(O)C(F)(F)F.O=C(O)C(F)(F)F.O=C(O)C(F)(F)F.O=C(O)C(F)(F)F.O=C(O)C(F)(F)F.O=C(O)C(F)(F)F.O=C(O)C(F)(F)F.O=C(O)C(F)(F)F.O=C(O)C(F)(F)F [Compound 1, Tobramycin Homodimer 1]",effect of addition of compound 1 on activity of novobiocin,MRSA ATCC 33592,did not improve
same,effect of addition of compound 1 on activity of novobiocin,E. faecium ATCC 27270,did not improve
same,effect of addition of compound 1 on activity of novobiocin,MRSE 61589,did not improve
same,MIC of Novobiocin +Compound 1,E. cloacae; E. cloacae 117029,8 µg/mL
same,Fold Potentiation,E. cloacae; E. cloacae 117029,128 fold
same,MIC of Novobiocin +Compound 1,E. cloacae; E. cloacae 118568,32 µg/mL
same,Fold Potentiation,E. cloacae; E. cloacae 118568,32 fold
same,MIC of Novobiocin +Compound 1,E. cloacae; E. cloacae 121187,8 µg/mL
same,Fold Potentiation,E. cloacae; E. cloacae 121187,8 fold
same,MIC of Novobiocin + adjuvant (7.1 μM),"E. cloacae; EC 118568, PMBN or 1 at 7.1 μM",32 µg/mL
same,MIC of Novobiocin +Compound 1,P. aeruginosa; P. aeruginosa 259-96918,8 µg/mL
same,MIC of Novobiocin +Compound 1,P. aeruginosa; P. aeruginosa 260-97103,1 µg/mL
same,MIC of Novobiocin +Compound 1,P. aeruginosa; P. aeruginosa 262-101856,8 µg/mL
same,MIC of Novobiocin +Compound 1,P. aeruginosa; P. aeruginosa 264-104354,8 µg/mL
same,MIC of Novobiocin +Compound 1,P. aeruginosa; P. aeruginosa 91433,1 µg/mL
same,MIC of Novobiocin +Compound 1,P. aeruginosa; P. aeruginosa 100036,8 µg/mL
same,MIC of Novobiocin +Compound 1,P. aeruginosa; P. aeruginosa 101243,1 µg/mL
same,MIC of Novobiocin +Compound 1,P. aeruginosa; P. aeruginosa 101885,8 µg/mL
same,MIC of Novobiocin +Compound 1,P. aeruginosa; P. aeruginosa 114228,16 µg/mL
same,MIC of Novobiocin +Compound 1,P. aeruginosa; P. aeruginosa PAO1,4 µg/mL
same,MIC of Novobiocin + adjuvant (7.1 μM),P. aeruginosa; PA 91433,1 µg/mL
same,MIC of Novobiocin + adjuvant (7.1 μM),P. aeruginosa; PA 101243,1 µg/mL
same,MIC of Novobiocin + adjuvant (7.1 μM),P. aeruginosa; PA 114228,16 µg/mL
same,MIC of Novobiocin +7.1 μM Compound 1,P. aeruginosa; PAO1 (wild-type),4 µg/mL
same,MIC of Novobiocin + adjuvant (7.1 μM),P. aeruginosa; PAO1,4 µg/mL
same,MIC of Novobiocin +7.1 μM Compound 1,P. aeruginosa; PAO200 (efflux-deficient),0.125 µg/mL
same,MIC of Novobiocin +7.1 μM Compound 1,P. aeruginosa; PAO750 (efflux-deficient),0.125 µg/mL
same,resistance phenotype after exposure to sub-MIC levels,A. baumannii ATCC 17978,did not generate tobramycin-resistant phenotype
same,mortality of infected larvae,MDR A. baumannii,100%
same,MIC of Novobiocin +Compound 1,A. baumannii; A. baumannii 027,0.5 µg/mL
same,Fold Potentiation,A. baumannii; A. baumannii 027,16 fold
same,MIC of Novobiocin +Compound 1,A. baumannii; A. baumannii 031,0.5 µg/mL
same,Fold Potentiation,A. baumannii; A. baumannii 031,16 fold
same,MIC of Novobiocin +Compound 1,A. baumannii; A. baumannii 92247,0.25 µg/mL
same,Fold Potentiation,A. baumannii; A. baumannii 92247,16 fold
same,MIC of Novobiocin +Compound 1,A. baumannii; A. baumannii 110193,1 µg/mL
same,Fold Potentiation,A. baumannii; A. baumannii 110193,256 fold
same,MIC of Novobiocin +Compound 1,A. baumannii; A. baumannii ATCC 17978,0.5 µg/mL
same,Fold Potentiation,A. baumannii; A. baumannii ATCC 17978,32 fold
same,MIC of Novobiocin +Compound 1,A. baumannii; A. baumannii LAC-4,0.5 µg/mL
same,Fold Potentiation,A. baumannii; A. baumannii LAC-4,16 fold
same,MIC of Novobiocin + adjuvant (7.1 μM),"A. baumannii; AB 92247, PMBN or 1 at 7.1 μM",0.25 µg/mL
same,potentiation of novobiocin,A. baumannii; colistin-resistant mutant B of A. baumannii ATCC 17978,did not potentiate
same,fold potentiation of novobiocin,A. baumannii; novobiocin-resistant mutant A of A. baumannii ATCC 17978,16 fold
same,MIC of novobiocin in the presence of compound 1,"A. baumannii; wild-type and MDR A. baumannii clinical isolates, ≤7.1 μM of compound 1",≤ 1 µg/mL
same,MIC of Novobiocin +Compound 1,K. pneumoniae; K. pneumoniae 113250,16 µg/mL
same,Fold Potentiation,K. pneumoniae; K. pneumoniae 113250,32 fold
same,MIC of Novobiocin +Compound 1,K. pneumoniae; K. pneumoniae 113254,16 µg/mL
same,Fold Potentiation,K. pneumoniae; K. pneumoniae 113254,16 fold
same,MIC of Novobiocin +Compound 1,K. pneumoniae; K. pneumoniae 116381,8 µg/mL
same,Fold Potentiation,K. pneumoniae; K. pneumoniae 116381,128 fold
same,MIC of Novobiocin + adjuvant (7.1 μM),"K. pneumoniae; KP 113254, PMBN or 1 at 7.1 μM",16 µg/mL
same,MIC of Novobiocin +Compound 1,E. coli; E. coli 94393,2 µg/mL
same,MIC of Novobiocin + adjuvant (7.1 μM),E. coli; E. coli 94393,2 µg/mL
same,Fold Potentiation,E. coli; E. coli 94393,64 fold
same,MIC of Novobiocin +Compound 1,E. coli; E. coli 94474,16 µg/mL
same,MIC of Novobiocin + adjuvant (7.1 μM),E. coli; E. coli 94474,16 µg/mL
same,Fold Potentiation,E. coli; E. coli 94474,16 fold
same,MIC of Novobiocin +Compound 1,E. coli; E. coli 107115,8 µg/mL
same,Fold Potentiation,E. coli; E. coli 107115,16 fold
same,MIC of Novobiocin +Compound 1,E. coli; E. coli ATCC 25922,2 µg/mL
same,Fold Potentiation,E. coli; E. coli ATCC 25922,32 fold
